These results are taken from PubChem BioAssay (NCI).

Assay in all cases: inhibition of tumour cell growth, NCI panel, 48 h
Assay [1] concerns A498 renal.
Assay [2] deals with HCT-15 colon.
Assay [3] relates to HOP-62 NSCLC.
The test system of assay [4] is NCI/ADR-RES ovarian.
Assay [5] deals with OVCAR-4 ovarian.
Assay [6] has as its system PC-3 prostate.
Assay [7] concerns SK-MEL-28 melanoma.
Assay [8] relates to SK-OV-3 ovarian.
Assay [9] deals with T-47D breast.
In assay [10] the test system is U251 CNS.

Molecules are shown by their SMILES.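 A five-concentration, 48-hour dose response in 96-well plates underlies each endpoint, interpolated linearly between surrounding concentrations. Here, GI50 denotes the concentration required for 50% inhibition of growth. Definition used: TGI = concentration required for complete inhibition of growth.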

For the compound `C=C1CC[C@@H]2[C@](C)(COC(C)=O)[C@H](OC(C)=O)CC[C@@]2(C)[C@@H]1CC(Sc1ccccc1)C1=CCOC1=O` (stereo partly specified), the GI50 in assay [1] is 2.3 µM; in assay [2] it was 0.877 µM; in assay [3], 2.89 µM; in [4], 2.1 µM; in assay [5], 1.36 µM; in assay [6], 1.84 µM. In addition, the GI50 was 1.62 µM in [7], 4.44 µM in assay [8], 2.01 µM in assay [9] and 1.56 µM in assay [10]. Besides, the TGI in assay [1] is 14 µM; in assay [2] it was 2.59 µM; in [3] it was 5.52 µM; in assay [4], 11 µM; in assay [5], 3.11 µM; in [6], 10.1 µM. Also, the TGI in assay [7] worked out at 3.29 µM; in assay [8], 16.8 µM; in assay [9], 8.32 µM; in assay [10], 2.96 µM.
`C=C1C(=O)OC2CCN3CC=C(COC(=O)C(C)(O)C4(CO4)C1C)C23` (stereo unspecified): the TGI in assay [1], in assay [2], in [4], in assay [5], in assay [6] and in assay [7] was > 100 µM in each case. The TGI in assay [8], in [9] and in assay [10] was > 100 µM each time.
On to `O=C(Nc1nc2ccc(C(F)(F)F)cc2s1)c1cc(Cl)ccc1O`, for which the GI50 was 0.309 µM in [1]; 0.346 µM in [2]; 2.03 µM in [3]; 0.841 µM in [4]; 1.87 µM in [5]; 0.318 µM in [6]. In addition, the GI50 is 0.425 µM in [7], 0.497 µM in assay [8], 0.303 µM in assay [9] and 1.44 µM in assay [10]. For the same compound, the TGI in [1] was 2.26 µM; in assay [2], 12.9 µM; in [3] it was 7.09 µM; in assay [4], > 100 µM; in assay [5], > 100 µM; in assay [6], 11.9 µM. The TGI was 18 µM in assay [7], 4.77 µM in assay [8], 2.96 µM in [9] and 26.9 µM in assay [10].
Turning to `O=C1/C(=C/c2ccc(Br)cc2)COc2ccc(O)c(O)c21`, the GI50 in assay [1] is 2.97 µM; in [2], 0.302 µM; in assay [4] it was 0.665 µM; in assay [5], 1.31 µM; in assay [6], 0.599 µM; in [7] it was 1.55 µM. Moreover, the GI50 in assay [8] was 2.63 µM; in [9], 0.906 µM; in assay [10], 0.588 µM. Also, the TGI in [1] is 7.75 µM; in assay [2], 1.51 µM; in [4], > 25.8 µM; in assay [5], 2.59 µM; in assay [6], 2.42 µM; in [7] it was 3.25 µM. In addition, the TGI was 11.6 µM in [8], 3.16 µM in assay [9] and 2.04 µM in assay [10].
`CS(=O)(=O)Nc1ccc2c(c1)oc(=O)c1ccccc12`: the TGI in [1], in [2], in [3], in assay [4], in assay [5] and in [6] was > 100 µM throughout. Besides, the TGI in assay [7], in [9] and in assay [10] was > 100 µM in each case.
Take `NC(=O)NC1C(c2ccccc2)=C1c1ccccc1`: the TGI in assay [1] was 39.9 µM; in assay [2], 32.4 µM; in assay [3], > 100 µM; in [4], 27 µM; in assay [5], 30.7 µM; in assay [6], 39.4 µM. Besides, the TGI was 33.3 µM in assay [7], 38.2 µM in assay [8], > 100 µM in assay [9] and 32.7 µM in assay [10].
`Cn1nc(N)c2cc([C@@H]3Nc4ccc5[nH]ncc5c4[C@H]4C5CCC(C5)[C@@H]34)ccc21` (stereo partly specified): the GI50 was 0.225 µM in assay [1]; 0.425 µM in [2]; 0.603 µM in assay [3]; 0.4 µM in assay [4]; 2.67 µM in [5]; 0.418 µM in [6]. Besides, the GI50 is 4.35 µM in assay [7], 1.16 µM in assay [8], 0.471 µM in [9] and 0.618 µM in [10]. For the same compound, the TGI in assay [1] was 1.15 µM; in [2] it was 14 µM; in assay [3] it was 25.5 µM; in [4] it was 10 µM; in assay [5], > 95 µM; in [6] it was 19.8 µM. In addition, the TGI in assay [7] came out at 29.1 µM; in assay [8], 69.1 µM; in assay [9], 58.8 µM; in [10], 23.2 µM.
Turning to `COc1cc2nc(-c3ccc(Cl)cc3)cc(OCCCN3CCCCC3)c2cc1OC`, the GI50 in [1] was 1.4 µM; in [2], 0.604 µM; in assay [3] it was 2.37 µM; in assay [4], 0.898 µM; in assay [5] it was 3.85 µM; in assay [6], 1.74 µM. Besides, the GI50 in assay [7] was 1.45 µM; in [9], 1.31 µM; in assay [10], 1.89 µM. For the same compound, the TGI is 3.82 µM in assay [1]; > 100 µM in [2]; > 100 µM in [3]; > 100 µM in [4]; > 100 µM in assay [5]; > 100 µM in [6]. For the same compound, the TGI in assay [7] is 3.07 µM; in [9], > 100 µM; in assay [10], > 100 µM.
`COc1cc(C#CC(=O)OC/C=C/c2ccc3c(c2)OCO3)cc(OC)c1OC`: the TGI in [1] is 21.5 µM; in assay [2] it was 78.8 µM; in [3] it was 86 µM; in [4], 47.8 µM; in [5], > 100 µM; in assay [6], 72.3 µM. Further, the TGI is > 100 µM in assay [7], 68.6 µM in [8], > 100 µM in assay [9] and > 100 µM in assay [10].
For the compound `CCC(C)n1ncn(-c2ccc(N3CCN(c4ccc(OCC5COC(Cn6cncn6)(c6ccc(Cl)cc6Cl)O5)cc4)CC3)cc2)c1=O` (stereo unspecified), the GI50 in assay [1] was 10.8 µM; in assay [2] it was 15.3 µM; in assay [3], 8.97 µM; in assay [4], 26.1 µM; in assay [5] it was 35.2 µM; in assay [6], 3.96 µM. The GI50 in assay [7] was > 100 µM; in assay [8] it was 24.2 µM; in assay [9], 1.27 µM; in assay [10], 4.03 µM. The TGI in assay [1] was > 100 µM; in assay [2], > 100 µM; in [3], 37 µM; in assay [4], > 100 µM; in assay [5], > 100 µM; in assay [6], > 100 µM. Besides, the TGI in [7] is > 100 µM; in assay [8], > 100 µM; in assay [9], 74.3 µM; in assay [10] it was > 100 µM.
`CNC(=O)N(C)N=NCCCl`: the TGI in [1], in [2], in [3], in [4], in assay [5] and in assay [6] was > 100 µM in each case. Also, the TGI in assay [7], in [8], in [9] and in [10] was > 100 µM in each case.
For `Cc1ccc(C)c(C2=C(c3cn(C)c4ccccc34)C(=O)NC2=O)c1`, the GI50 is > 12.1 µM in assay [1]; 9.33 µM in assay [2]; 12.1 µM in assay [3]; > 25 µM in assay [4]; > 25 µM in assay [5]; 13.8 µM in assay [6]. The GI50 in [7] was > 25 µM; in assay [8] it was 15.1 µM; in [9] it was 14 µM; in assay [10] it was > 25 µM. Further, the TGI is > 22.8 µM in assay [1]; > 25 µM in assay [2]; > 25 µM in [3]; > 25 µM in [4]; > 25 µM in assay [5]; > 25 µM in assay [6]. Further, the TGI in assay [7], in assay [8], in assay [9] and in [10] was > 25 µM in each case.
Regarding `COc1cc(N(CCC#N)CCC#N)ccc1/C(N=Nc1ccc([N+](=O)[O-])cc1)=N/NC(=O)c1cc(Br)ccc1O`, the GI50 in assay [1] was 86.6 µg/mL; in [2], 25.6 µg/mL; in assay [4], 40.1 µg/mL; in assay [5] it was 21.5 µg/mL; in assay [6], 37 µg/mL; in [7], 80.6 µg/mL. The GI50 in assay [8] was 37.3 µg/mL; in assay [9], 34.6 µg/mL; in [10], 57.3 µg/mL. In addition, the TGI in assay [1] was > 150 µg/mL; in [2], 68.2 µg/mL; in assay [4], 116 µg/mL; in assay [5], 62.4 µg/mL; in assay [6] it was > 150 µg/mL; in assay [7], > 150 µg/mL. Further, the TGI is > 150 µg/mL in assay [8], 87 µg/mL in assay [9] and > 150 µg/mL in assay [10].
As to `N#Cc1c(NN)n(C2OC(CO)C(O)C2O)c2ncnc(N)c12` (stereo unspecified), the GI50 in assay [2] is 0.0198 µM; in assay [3] it was 0.247 µM; in [4], 0.283 µM; in [5], 0.0538 µM; in assay [6], 0.0778 µM; in assay [7], 0.0312 µM. Moreover, the GI50 was 0.198 µM in assay [8], 0.0191 µM in assay [9] and 0.0919 µM in assay [10]. Besides, the TGI in assay [3] worked out at 2.02 µM; in assay [4] it was 4.17 µM; in [5] it was 3.24 µM; in assay [7], 0.216 µM; in assay [8], 0.722 µM; in [9] it was 0.118 µM. For the same compound, the TGI in assay [10] is > 100 µM.
As to `Cn1cc(CO)c2c1C(=O)C=C(N1CC1)C2=O`, the GI50 in assay [2] was < 0.01 µM; in [3], < 0.01 µM; in assay [4], 0.0291 µM; in assay [5], 0.0256 µM; in assay [6], 0.0153 µM; in assay [7], < 0.0166 µM. Besides, the GI50 in assay [8] is 0.0413 µM; in assay [9] it was 0.353 µM; in assay [10], < 0.01 µM. Also, the TGI is 0.0818 µM in assay [2]; < 0.0116 µM in [3]; 0.275 µM in assay [4]; 0.0917 µM in assay [5]; 0.128 µM in assay [6]; 0.605 µM in assay [7]. The figures for the TGI in [8], in [9] and in assay [10] were 1.31 µM, 7.81 µM and 0.0726 µM, respectively.
With `O=C(O)CCC(=O)c1ccc[nH]1`, the TGI in assay [1], in [2], in assay [3], in assay [4], in assay [5] and in [6] was > 100 µM each time. Further, the TGI in assay [8], in [9] and in assay [10] was > 100 µM throughout.
As to `O=C(Nc1ccc(Cl)cc1F)c1ccccc1O`, the GI50 in assay [1] was 2.22 µM; in [2], 1.92 µM; in [3] it was 2.74 µM; in assay [4] it was 2.44 µM; in assay [5], 2.75 µM; in [6], 2.77 µM. Besides, the GI50 was 3.9 µM in assay [7], 2.49 µM in assay [9] and 3.42 µM in assay [10]. Besides, the TGI was 6.29 µM in assay [1]; 14.2 µM in assay [2]; 21.7 µM in [3]; 7.61 µM in assay [4]; > 100 µM in [5]; 10.9 µM in assay [6]. The TGI was 21.6 µM in assay [7], > 100 µM in assay [9] and > 100 µM in assay [10].
For `C=C1C(=O)O[C@@H]2C[C@@H]1CC/C(C)=C/CC/C(C)=C/CC[C@@]2(C)O`, the GI50 in assay [1] was 23.4 µM; in [2] it was 18.2 µM; in assay [4], 9.28 µM; in assay [5], 34.6 µM; in assay [6] it was 6.73 µM; in assay [7] it was 22.2 µM. Also, the GI50 was 46.6 µM in assay [8], 34.2 µM in assay [9] and 18.4 µM in assay [10]. The TGI was 41.3 µM in assay [1]; 51.4 µM in assay [2]; 24.4 µM in [4]; > 100 µM in assay [5]; 21.3 µM in assay [6]; 49.8 µM in assay [7]. For the same compound, the TGI in [8] is > 100 µM; in assay [9], > 100 µM; in [10] it was 43.6 µM.
